Measured values taken from patent US11090267B2, “Rapidly degrading embolic particles with therapeutic agent release” (priority 2014, dated 2021).

Assay: incubation in water at 37° C., crystal form conversion (micrographs)
Type: physicochemical

Structure (SMILES)	conversion to dihydrate crystals upon incubation in water (amorphous paclitaxel microparticles dispersed in PLGA matrix, water at 37C, FIG. 4)	conversion to dihydrate crystals upon incubation in water (as-received powder dispersed in water at 37° C., FIGS. 5 and 6)
CC(=O)O[C@H]1C(=O)[C@@]2(C)[C@H]([C@H](OC(=O)c3ccccc3)[C@]3(O)C[C@H](OC(=O)[C@H](O)[C@@H](NC(=O)c4ccccc4)c4ccccc4)C(C)=C1C3(C)C)[C@]1(OC(C)=O)CO[C@@H]1C[C@@H]2O [amorphous paclitaxel, paclitaxel]	coalesce within hours into large, needle-like dihydrate crystals	–
CC(=O)O[C@H]1C(=O)[C@@]2(C)[C@H]([C@H](OC(=O)c3ccccc3)[C@]3(O)C[C@H](OC(=O)[C@H](O)[C@@H](NC(=O)c4ccccc4)c4ccccc4)C(C)=C1C3(C)C)[C@]1(OC(C)=O)CO[C@@H]1C[C@@H]2O [crystalline anhydrous paclitaxel, paclitaxel]	–	coalesce within hours to large needle-like dihydrate crystals
